One test deals with IL-23. Description: IL-23 protein in culture supernatant of RA-patient synovial cells. Conditions: increasing concentrations. It is filed as cell-based, human.
Another test relates to IL-10. In words: MSU-induced IL-10 in knee joint tissue (multiplex microassay). It is filed as in vivo, mouse. As to conditions: 2,4-D 100 mg/kg, DEX 0.5 mg/kg. How it is done: (§1) Mice (six per group) were treated with 2,4-D (100 mg/kg or 20 mg/kg, i.p.), CLC (1 mg/kg or 0.2 mg/kg, i.p.), DEX (0.5 mg/kg or 0.1 mg/kg, i.p.), or vehicle (20% polyoxyethylenesorbitan monooleate (Tween 80) plus PBS) 30 min before intra-articular stimulus with MSU (100 μg/10 μL, i.a.). Six mice with intra-articular injection with PBS alone served as a negative control.
(§2) Induction of MSU-Induced Knee Joint Inflammation. Male ICR (CD-1) mice (35-45 g, 10-12 weeks) were purchased from VitalRiver Inc (Beijing, China) and were kept in an animal care facility under controlled temperature of 21±1° C., humidity, and on a light/dark cycle, with ad libitum access to water and standard laboratory chow diet. Animal care and handling procedures were approved by the Animal Ethics Committee of GZUCM (Guangzhou University of Chinese Medicine). All efforts were made to minimize animal suffering and to reduce the number of animals used. Joint inflammation was induced by the intra-articular (i.a.) administration of MSU (200 μg/20 μl) into the right and left knee joints of mice under inhaled 3% isoflurane anesthesia. Control animals received an injection (i.a.) of sterile PBS (20 μL).
(§3) Cytokine Measurement. Mice were anesthetized and sacrificed. Knee joints were collected and frozen in liquid nitrogen. Samples were then homogenized in 500 μl of buffer containing protease inhibitors, centrifuged (3600 rpm, 4° C., 15 min) and supernatants were used to determine Th1/Th2/Th17 cytokine levels using a multiplex microassay (Qantibody® mouse TH17 Array 1 kit, Cat. No.: QAM-TH17-1; RayBiotech, Norcross, GA). Results were expressed as picograms (pg) of cytokine/mg of tissue.
(§4) Statistical Analysis. […] For in vitro experiments, microassays were performed in quadruplicate. p<0.05 was considered significant (*p<0.05, **p<0.01, ***p<0.001).

Another test relates to IL-1ß. Description: MSU-induced IL-1ß in knee joint tissue (multiplex microassay). It is filed as in vivo, mouse. As to conditions: 2,4-D 100 mg/kg, CLC 1 mg/kg, DEX 0.5 mg/kg. Here is the method: as §1, §2, §3, §4
Test [1] deals with MSU-induced leukocyte recruitment. Description: MSU-induced leukocyte recruitment to the synovial cavity of knee joint. It is filed as in vivo, mouse. Conditions: 20 h; 2,4-D 100 mg/kg, CLC 1 mg/kg, DEX 0.5 mg/kg. How it is done:
2,4-D, isolated and purified from Chloranthus spicatus (purity≥98%), was purchased from BOC Science (Shirley, NY). Colchicine (CLC) (purity≥96%) and dexamethasone (DEX) (purity≥98%) were purchased from Sigma. Mice (six per group) were treated with 2,4-D (100 mg/kg or 20 mg/kg, i.p.), CLC (1 mg/kg or 0.2 mg/kg, i.p.), DEX (0.5 mg/kg or 0.1 mg/kg, i.p.), or vehicle (20% polyoxyethylenesorbitan monooleate (Tween 80) plus PBS) 30 min before intra-articular stimulus with MSU (100 μg/10 μL, i.a.). Six mice with intra-articular injection with PBS alone served as a negative control.
as §2
Histopathological Analysis. Knee joint was collected 20 h after MSU injection, fixed with 10% paraformaldehyde in PBS, and then decalcified for 10 days with EDTA and embedded in paraffin for histological analysis. […] Results are expressed as leukocytes infiltrate (cell/field) counted at the inflammatory foci within synovial cavity as indicative of synovitis. […]
Statistical Analysis. Data were analyzed using GraphPad Prism statistical software (GraphPad Software, Inc., United States-500.288, version 5.0). Results are presented as means±SEM or SD of measurements made on 6 mice per group, with statistical significance determined by two-way ANOVA, comparing each group to the control (“Model”) group. […]

For `COc1cc(O)c(OC)c(O)c1C(=O)/C=C/c1ccccc1` [2,4-D, 2′,4′-dihydroxy-3′,6′-dimethoxychalcone], the “concentration of IL-23 protein in the culture supernatant” value in the test with IL-23 is reported as “significantly inhibited”. Moreover, in the test with IL-10, the “decrease of IL-10 in knee joint tissue” value stood at 1.7 fold. Moreover, the “decrease of IL-1ß in knee joint tissue” value in the test with IL-1ß is 5.3 fold. The “reduction of MSU-induced leukocyte recruitment” value in test [1] was found to be 4.5 fold.

(Values after patent publication US20240335395A1, “COMPOSITIONS AND METHODS FOR PREVENTING AND/OR TREATING DISEASE ASSOCIATED WITH IL-23 EXPRESSION” (ALLSPIM, priority 2021, published 2024).)
